The text below walks through data of ChEMBL document CHEMBL1221332, “[3-azabicyclo[3.1.0]hex-1-yl]phenyl-benzenesulfonamides as selective dopamine D3 antagonists” (Bioorg Med Chem Lett, 2010).

One series deals with D(2) dopamine receptor (Homo sapiens, UniProt P14416).
In series [1] the target is Voltage-gated inwardly rectifying potassium channel KCNH2 (Homo sapiens, UniProt Q12809).
The next series concerns the target D(3) dopamine receptor (Homo sapiens, UniProt P35462). Kind of series: Antagonist activity at dopamine D3 receptor by GTPgammaS binding assay. Format: functional. (In general: GTPγS resists hydrolysis and so accumulates on activated G proteins.)
The nature of series [2]: Ratio of drug level in brain to plasma in rat. Format: ADME.

Some results are limits rather than exact numbers.

Sequence of Voltage-gated inwardly rectifying potassium channel KCNH2 (Q12809 whole entry): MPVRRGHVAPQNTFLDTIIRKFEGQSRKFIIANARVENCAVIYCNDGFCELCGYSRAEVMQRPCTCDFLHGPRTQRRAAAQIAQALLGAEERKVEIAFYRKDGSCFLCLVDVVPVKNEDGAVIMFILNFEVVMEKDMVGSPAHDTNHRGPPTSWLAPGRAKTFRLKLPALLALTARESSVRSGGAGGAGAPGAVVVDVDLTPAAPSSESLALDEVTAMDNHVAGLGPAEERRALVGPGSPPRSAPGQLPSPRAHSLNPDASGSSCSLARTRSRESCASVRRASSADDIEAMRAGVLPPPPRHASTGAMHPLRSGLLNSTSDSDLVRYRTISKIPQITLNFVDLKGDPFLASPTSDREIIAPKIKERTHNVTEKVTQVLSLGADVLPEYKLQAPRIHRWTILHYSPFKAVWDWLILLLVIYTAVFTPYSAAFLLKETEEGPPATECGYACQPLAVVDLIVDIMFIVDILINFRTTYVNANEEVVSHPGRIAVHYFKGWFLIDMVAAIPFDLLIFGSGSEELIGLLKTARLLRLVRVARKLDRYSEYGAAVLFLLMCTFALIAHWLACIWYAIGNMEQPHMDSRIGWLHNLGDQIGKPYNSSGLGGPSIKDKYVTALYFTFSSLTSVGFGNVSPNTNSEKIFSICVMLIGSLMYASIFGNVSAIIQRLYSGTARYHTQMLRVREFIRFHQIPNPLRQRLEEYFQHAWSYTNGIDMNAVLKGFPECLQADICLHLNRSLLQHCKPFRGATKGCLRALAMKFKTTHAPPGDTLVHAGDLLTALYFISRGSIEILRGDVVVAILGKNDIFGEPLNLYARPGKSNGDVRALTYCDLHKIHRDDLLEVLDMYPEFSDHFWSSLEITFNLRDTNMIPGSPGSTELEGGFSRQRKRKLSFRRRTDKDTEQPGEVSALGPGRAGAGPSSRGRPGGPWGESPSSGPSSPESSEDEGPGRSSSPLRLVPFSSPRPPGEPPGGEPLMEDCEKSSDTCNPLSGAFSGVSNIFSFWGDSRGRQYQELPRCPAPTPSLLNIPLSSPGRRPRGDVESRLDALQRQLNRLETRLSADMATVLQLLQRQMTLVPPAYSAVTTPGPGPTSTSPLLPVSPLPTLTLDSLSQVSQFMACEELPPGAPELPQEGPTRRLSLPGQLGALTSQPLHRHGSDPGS
Sequence of D(3) dopamine receptor (P35462 whole entry): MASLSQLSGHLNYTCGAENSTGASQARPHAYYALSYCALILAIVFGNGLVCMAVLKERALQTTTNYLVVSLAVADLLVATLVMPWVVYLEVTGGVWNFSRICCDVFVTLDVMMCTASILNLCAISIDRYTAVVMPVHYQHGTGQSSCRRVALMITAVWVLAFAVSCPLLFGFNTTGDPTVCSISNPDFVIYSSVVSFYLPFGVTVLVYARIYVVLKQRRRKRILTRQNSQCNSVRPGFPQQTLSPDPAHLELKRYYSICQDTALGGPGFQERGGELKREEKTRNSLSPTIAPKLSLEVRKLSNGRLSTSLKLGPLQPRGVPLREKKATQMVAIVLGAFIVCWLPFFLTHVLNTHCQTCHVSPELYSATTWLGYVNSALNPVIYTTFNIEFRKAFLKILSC
Sequence of D(2) dopamine receptor (P14416 whole entry): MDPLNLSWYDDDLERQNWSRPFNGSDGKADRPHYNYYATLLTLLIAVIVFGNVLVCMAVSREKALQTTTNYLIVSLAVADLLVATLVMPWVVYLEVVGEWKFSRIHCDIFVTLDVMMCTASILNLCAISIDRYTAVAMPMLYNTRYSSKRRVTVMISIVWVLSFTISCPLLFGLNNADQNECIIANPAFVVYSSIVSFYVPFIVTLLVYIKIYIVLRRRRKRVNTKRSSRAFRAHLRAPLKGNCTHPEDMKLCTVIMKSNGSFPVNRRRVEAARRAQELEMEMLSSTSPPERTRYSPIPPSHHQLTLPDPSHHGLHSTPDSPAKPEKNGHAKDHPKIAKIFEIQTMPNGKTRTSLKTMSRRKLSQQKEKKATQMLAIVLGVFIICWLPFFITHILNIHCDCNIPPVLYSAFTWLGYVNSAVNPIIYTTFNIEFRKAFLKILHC
Description for D(2) dopamine receptor: Antagonist activity at dopamine D2 receptor by GTPgammaS binding assay

On to `CC(C)c1ccc(S(=O)(=O)Cc2ccc([C@]34CNC[C@H]3C4)cc2)cc1`, for which the values for the Ki at D(2) dopamine receptor and at D(3) dopamine receptor were 316 nM and 25.1 nM, respectively. Further, the IC50 (usually the concentration that gives 50% inhibition) in series [1] is 1260 nM.

As for `CN(c1ccc([C@]23CNC[C@H]2C3)cc1)S(=O)(=O)c1ccccc1`, the results for the Ki at D(2) dopamine receptor and at D(3) dopamine receptor were 501 nM and 79.4 nM, respectively. In addition, the IC50 in series [1] is greater than 63100 nM.

As to `CC(C)c1ccc(CS(=O)(=O)c2ccc([C@]34CNC[C@H]3C4)cc2)cc1`, the Ki (as a rule, the dissociation constant of the complex between target and ligand, obtained from inhibition or displacement) was greater than 3160 nM on D(2) dopamine receptor and 25.1 nM on D(3) dopamine receptor. The molecule also had a half-inhibitory concentration (IC50) in series [1] of 3160 nM.

As to `CCCCc1ccc(S(=O)(=O)Nc2ccc([C@]34CNC[C@H]3C4)cc2)cc1`, the Ki is 126 nM on D(2) dopamine receptor and 5.01 nM at D(3) dopamine receptor.

Consider `CCC(C)(C)c1ccc(S(=O)(=O)Nc2ccc([C@]34CNC[C@H]3C4)cc2)cc1`, for which the values for the Ki at D(2) dopamine receptor and on D(3) dopamine receptor were 50.1 nM and 6.31 nM, respectively.

Turning to `CC(C)c1ccc(S(=O)(=O)Nc2ccc([C@@]34C[C@@H]3CN(C)C4)cc2)cc1`, the figures for the Ki on D(2) dopamine receptor and on D(3) dopamine receptor were 63.1 nM and 6.31 nM, respectively. Moreover, the IC50 in series [1] was 1580 nM. Moreover, the Kp (commonly the ratio of the level in a tissue or fluid to that in plasma or blood) in series [2] was 7.3.

`CCN1C[C@H]2C[C@@]2(c2ccc(NS(=O)(=O)c3ccc(C(C)C)cc3)cc2)C1`: the Ki on D(2) dopamine receptor is 100 nM; at D(3) dopamine receptor, 7.94 nM. For the same molecule, in series [1], half-maximal inhibition (IC50) required 1260 nM.

In the case of `C=CCN1C[C@H]2C[C@@]2(c2ccc(NS(=O)(=O)c3ccc(C(C)C)cc3)cc2)C1`, the Ki at D(2) dopamine receptor is 63.1 nM; on D(3) dopamine receptor, 2.51 nM. Besides, in series [1], the IC50 is 100 nM.

On D(2) dopamine receptor, `COc1cc([C@]23CNC[C@H]2C3)ccc1NS(=O)(=O)c1ccc(C(C)C)cc1` had an inhibition constant (Ki) of 50.1 nM.

For `O=S(=O)(Nc1ccc([C@]23CNC[C@H]2C3)cc1)c1ccc(C(F)(F)F)cc1`, the results for the Ki at D(2) dopamine receptor and at D(3) dopamine receptor were greater than 3160 nM and 251 nM, respectively. The IC50 in series [1] was 794 nM.

In the case of `O=S(=O)(Nc1ccc([C@]23CNC[C@H]2C3)cc1)c1ccc(OC(F)(F)F)cc1`, the Ki at D(2) dopamine receptor is 1000 nM; on D(3) dopamine receptor it was 631 nM. The same molecule gave an IC50 in series [1] of 10000 nM.

`CC(C)c1ccc(S(=O)(=O)Nc2ccc([C@]34CNC[C@H]3C4)cc2)cc1` (racemic) had an IC50 in series [1] of 1000 nM. At D(3) dopamine receptor, this molecule gave a Ki of 2.51 nM.

`CC(C)c1ccc(S(=O)(=O)Nc2ccc(C34CNCC3C4)cc2)cc1` (single isomer, unassigned; enantiomer 1) had an IC50 in series [1] of 5010 nM. Also, affinity at D(3) dopamine receptor was put at a Ki of 3.98 nM.

`CC(C)c1ccc(S(=O)(=O)Nc2ccc(C34CNCC3C4)cc2)cc1` (single isomer, unassigned; enantiomer 2) gave an IC50 in series [1] of 1580 nM. Moreover, the affinity at D(3) dopamine receptor, expressed as Ki, was 200 nM.
